{
  "source": "patent US20220226283A1",
  "about": "“COMBINATION PRODUCT CONTAINING LIMONOID COMPOUND AND DPP-4 INHIBITOR” (ZHEJIANG YANGSHENGTANG INSTITUTE OF NATURAL MEDICATION CO., …, priority 2019, published 2022)",
  "system": "mouse model of type II diabetes with pancreatic islet damage and obesity (ICR mice, STZ and high-fat diet)",
  "test": "Blood glucose in mouse type II diabetes model with pancreatic islet damage and obesity (limonoid compound, alogliptin or combination)",
  "assay_type": "in vivo",
  "details": "single administration 0.5 g/kg per day by gavage, two weeks, 1 h after the last administration, mean ± SD",
  "source_text": "In this example, a mouse model of type II diabetes with pancreatic islet damage and obesity was established by multiple modeling ICR mice with a small dose of streptozotocin (STZ), following with continuous high-fat diets (referring to literature: Zhang Jiyuan et al, Study on the effect of three plant extracts on improving glucose and lipid metabolism in type 2 diabetic mice, Food and Machinery, 2016, 32 (12): 142-147). […]\nExperimental grouping: 15 male mice were randomly selected as the normal control group, and the remaining mice were subjected to a high-fat diet (high-fat diet formula: cholesterol 1%, egg yolk powder 10%, lard oil 10%, and basic feed 79%, for establishing an obesity mouse model) for consecutive 4 weeks and intraperitoneal injection of STZ at a dose of 35 mg/kg for three consecutive days. After one week, the mice were subject to 24 hours of fasting and water deprivation, their fasting blood glucose was measured, and the mice with a blood glucose level of 15 to 25 mmol/L were selected and undifferentiatedly grouped and used in the experiment, continuously subjected to the high-fat diet, 15 mice in each group, and subjected to blood sampling and detection of indicators after 2 weeks of administration. […]",
  "data": [
    {"molecule": "Cn1c(=O)cc(N2CCC[C@@H](N)C2)n(Cc2ccccc2C#N)c1=O", "note": "[Alogliptin, alogliptin]", "values": [
      {"measurement": "Blood glucose value", "value": "14.5 ± 2.8", "unit": "mmol/L"}
    ]}
  ]
}
